Measurements: PubChem BioAssay (NCI)
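Test compounds were applied to cells in 96-well plates for 48 hours at 5 doses. At the GI50, growth is halved. TGI: concentration producing complete growth inhibition.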

Assays:
Assay in all cases: NCI-60 cell line screen, 48 h
[1] = tested on: SN12C renal
[2] = tested on: SF-539 CNS
[3] = tested on: SK-MEL-2 melanoma
[4] = tested on: HOP-92 NSCLC
[5] = tested on: HCC-2998 colon
[6] = tested on: MDA-MB-231 breast
[7] = tested on: CAKI-1 renal
[8] = tested on: UO-31 renal
[9] = tested on: SW-620 colon
[10] = tested on: MOLT-4 leukemia

| SMILES | TGI [1] | TGI [2] | TGI [3] | TGI [4] | TGI [5] | TGI [6] | TGI [7] | TGI [8] | TGI [9] | GI50 [1] | GI50 [10] | TGI [10] | GI50 [2] | GI50 [3] | GI50 [4] | GI50 [5] | GI50 [6] | GI50 [7] | GI50 [8] | GI50 [9] |
| --- | --- | --- | --- | --- | --- | --- | --- | --- | --- | --- | --- | --- | --- | --- | --- | --- | --- | --- | --- | --- |
| CC(C)(C)NCc1cc(C(C)(C)C)cc(-c2ccc(Cl)cc2)c1O | 30.3 µM | 27.9 µM | 37.9 µM | 28.3 µM | 29.6 µM | 24.8 µM | 25.6 µM | 15.1 µM | – | – | – | – | – | – | – | – | – | – | – | – |
| Nc1ccc(S(=O)(=O)C23CC4CC(CC(C4)C2)C3)cc1 | > 100 µM | > 100 µM | > 100 µM | – | > 100 µM | > 100 µM | > 100 µM | > 100 µM | > 100 µM | – | – | – | – | – | – | – | – | – | – | – |
| C#CC1(O)C(COP(=O)(O)OC2CC(n3cc(F)c(=O)[nH]c3=O)OC2CO)OC(n2ccc(N)nc2=O)C1O (stereo unspecified) | > 100 µM | 0.22 µM | 1.66 µM | 3.75 µM | 0.431 µM | > 61.9 µM | 0.0813 µM | – | > 100 µM | < 0.0106 µM | < 0.01 µM | > 39 µM | < 0.0105 µM | 0.0735 µM | < 0.0242 µM | < 0.01 µM | 0.0731 µM | < 0.01 µM | < 0.0128 µM | < 0.01 µM |
| CC(C)c1ccc(C(=O)Nc2sc3c(c2C#N)CCC(=O)C3)cc1 | > 100 µM | 1.41 µM | 5.97 µM | 2.4 µM | > 37.4 µM | 2.88 µM | 1.95 µM | 0.982 µM | 1.67 µM | 0.378 µM | 0.412 µM | > 100 µM | 0.337 µM | 1.6 µM | 0.607 µM | 1.94 µM | 0.594 µM | 0.343 µM | 0.252 µM | 0.266 µM |
| CCOC(=O)C(CO)c1nc2c([nH]c1=O)c(=O)n(C)c(=O)n2C (stereo unspecified) | > 100 µM | > 100 µM | > 100 µM | – | > 100 µM | > 100 µM | > 100 µM | > 100 µM | > 100 µM | – | – | – | – | – | – | – | – | – | – | – |
| CCOC(=O)c1[nH]c(-c2ccc(Cl)cc2)cc1-c1cccnc1 | > 100 µM | 7.14 µM | – | 84.7 µM | > 100 µM | > 100 µM | – | > 100 µM | > 100 µM | 1.44 µM | 0.683 µM | > 100 µM | 0.423 µM | – | 0.572 µM | 9.46 µM | 1.67 µM | – | 1.02 µM | 2.87 µM |
| COc1cc2noc(-c3ccccc3)c2cc1OC | > 100 µM | > 100 µM | > 100 µM | > 100 µM | > 100 µM | – | 92.2 µM | > 100 µM | > 100 µM | – | – | > 100 µM | – | – | – | – | – | – | – | – |
| NC(=O)c1cc(Br)cc(C2CCCCC2)c1O | 25.1 µM | 30.2 µM | 29.7 µM | 25.7 µM | – | 25.3 µM | 20.3 µM | 18.3 µM | 29.8 µM | 12.2 µM | 13.9 µM | 34.5 µM | 15.2 µM | 15.8 µM | 12.2 µM | – | 12.1 µM | 6.15 µM | 2.51 µM | 15.5 µM |
| CN(C)CCCN1c2nc3ccccc3cc2Sc2cc3ccccc3nc21 | 2.55 µM | 2.97 µM | 2.84 µM | 1.42 µM | 3.26 µM | 2.75 µM | 3.01 µM | 2.71 µM | 2.88 µM | 1.28 µM | 0.892 µM | 2.31 µM | 1.61 µM | 1.3 µM | 0.332 µM | 1.65 µM | 1.41 µM | 1.46 µM | 1.27 µM | 1.48 µM |
